In ChEMBL document CHEMBL1201862, “PubChem BioAssay data set” (2004):
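Protocol summary: plate cells (96-well), add compound at 5 concentrations, incubate 48 h, interpolate endpoints linearly. GI50 = concentration required for 50% inhibition of growth.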 Activity calls are given as the source filed them. No stated cut-off is given here; in the data, active = GI50 up to about 1.1 µM and inactive = higher.

How the values were obtained:
Assay in all cases: NCI-60 cell line screen, 48 h
U-251 = test system: U-251
HCT-116 = test system: HCT-116
SNB-78 = test system: SNB-78
NCI-H522 = test system: NCI-H522
Malme-3M = test system: Malme-3M
COLO 205 = test system: COLO 205
UO-31 = test system: UO-31
M19-MEL = test system: M19-MEL
HCC 2998 = test system: HCC 2998
SK-MEL-5 = test system: SK-MEL-5
786-0 = test system: 786-0
EKVX = test system: EKVX
SF-268 = test system: SF-268
NCI-H23 = test system: NCI-H23
HOP-62 = test system: HOP-62
SNB-75 = test system: SNB-75
HT-29 = test system: HT-29
CCRF-CEM = test system: CCRF-CEM
LOX IMVI = test system: LOX IMVI
HCT-15 = test system: HCT-15
A549 = test system: A549
MOLT-4 = test system: MOLT-4
DMS-273 = test system: DMS-273
CAKI-1 = test system: CAKI-1
SNB-19 = test system: SNB-19
ACHN = test system: ACHN
DLD-1 = test system: DLD-1
NCI-H460 = test system: NCI-H460
SF-539 = test system: SF-539
NCI-H226 = test system: NCI-H226
OVCAR-5 = test system: OVCAR-5
SW-620 = test system: SW-620
M14 = test system: M14
KM12 = test system: KM12
K562 = test system: K562
TK-10 = test system: TK-10
HOP-18 = test system: HOP-18
SK-MEL-28 = test system: SK-MEL-28
OVCAR-8 = test system: OVCAR-8
SR = test system: SR
HL-60 = test system: HL-60
RPMI-8226 = test system: RPMI-8226
SN12C = test system: SN12C
OVCAR-4 = test system: OVCAR-4
DMS-114 = test system: DMS-114
UACC-257 = test system: UACC-257
OVCAR-3 = test system: OVCAR-3
XF498 = test system: XF498
SF-295 = test system: SF-295
SK-MEL-2 = test system: SK-MEL-2
RXF 393 = test system: RXF 393
UACC-62 = test system: UACC-62
HOP-92 = test system: HOP-92
KM-20L2 = test system: KM-20L2
A498 = test system: A498
IGROV-1 = test system: IGROV-1
SK-OV-3 = test system: SK-OV-3
LXFL 529 = test system: LXFL 529

Measured: GI50

COC(=O)c1ccc(OCc2ccc3oc(=O)c(-c4ccccc4)nc3c2)cc1
> 100 µM: HCT-15
inactive: U-251 > 100 µM | HCT-116 > 100 µM | SNB-78 > 100 µM | NCI-H522 33.6 µM | Malme-3M 59.2 µM | COLO 205 33.9 µM | UO-31 > 100 µM | M19-MEL > 100 µM | HCC 2998 > 100 µM | SK-MEL-5 > 100 µM | 786-0 28.9 µM | EKVX > 100 µM | SF-268 > 100 µM | NCI-H23 71.3 µM | HOP-62 > 100 µM | SNB-75 > 100 µM | HT-29 > 100 µM | CCRF-CEM 23.5 µM | LOX IMVI > 100 µM | A549 > 100 µM | MOLT-4 22.9 µM | DMS-273 > 100 µM | CAKI-1 > 100 µM | SNB-19 > 100 µM | ACHN > 100 µM | DLD-1 15.2 µM | NCI-H460 > 100 µM | SF-539 > 100 µM | NCI-H226 > 100 µM | OVCAR-5 > 100 µM | SW-620 57.3 µM | M14 > 100 µM | KM12 > 100 µM | K562 27.9 µM | TK-10 44 µM | HOP-18 > 100 µM | SK-MEL-28 > 100 µM | OVCAR-8 > 100 µM | SR 30.8 µM | HL-60 28.4 µM | RPMI-8226 34.9 µM | SN12C > 100 µM | OVCAR-4 > 100 µM | DMS-114 > 100 µM | UACC-257 > 100 µM | OVCAR-3 44.9 µM | XF498 84.3 µM | SF-295 > 100 µM | SK-MEL-2 > 100 µM

C=CCCCCCCCCCP(=O)(c1ccccc1)c1ccc2c(c1)OCCOCCOCCOCCO2 (centres undefined)
inactive: U-251 15.9 µM | HCT-116 10.4 µM | RXF 393 14.2 µM | SNB-78 19.1 µM | NCI-H522 12.1 µM | Malme-3M 17.7 µM | COLO 205 15.9 µM | UO-31 10.8 µM | UACC-62 15.7 µM | M19-MEL 18.4 µM | HCC 2998 17.3 µM | SK-MEL-5 11.3 µM | 786-0 16.3 µM | EKVX 19.6 µM | SF-268 15.3 µM | NCI-H23 14.9 µM | HOP-62 16.6 µM | SNB-75 18.5 µM | HT-29 12.2 µM | CCRF-CEM 16.5 µM | LOX IMVI 15.3 µM | A549 14.6 µM | MOLT-4 9.75 µM | DMS-273 15.1 µM | CAKI-1 > 100 µM | HOP-92 > 100 µM | SNB-19 13.1 µM | ACHN 16.7 µM | DLD-1 13.6 µM | NCI-H460 13.2 µM | KM-20L2 14.1 µM | SF-539 17.3 µM | NCI-H226 13.7 µM | A498 14.2 µM | OVCAR-5 17.4 µM | SW-620 16 µM | M14 > 100 µM | KM12 12.8 µM | K562 9.42 µM | TK-10 18.4 µM | HOP-18 16.3 µM | SK-MEL-28 16.3 µM | OVCAR-8 15.9 µM | SR 7.16 µM | IGROV-1 16 µM | HL-60 5.18 µM | SK-OV-3 20.2 µM | RPMI-8226 11.7 µM | SN12C 16.3 µM | OVCAR-4 11.5 µM | UACC-257 16.7 µM | OVCAR-3 7.08 µM | XF498 18.7 µM | SF-295 15.2 µM | SK-MEL-2 18 µM
13.8 µM: HCT-15

O=C(Cc1ccccc1)NN1C(=O)C(Cl)C1c1ccccc1 (centres undefined)
inactive: U-251 > 100 µM | HCT-116 > 100 µM | RXF 393 77.6 µM | SNB-78 > 100 µM | NCI-H522 2.05 µM | Malme-3M > 100 µM | COLO 205 > 100 µM | UO-31 88.7 µM | UACC-62 77.4 µM | M19-MEL > 100 µM | HCC 2998 > 100 µM | SK-MEL-5 74.1 µM | 786-0 > 100 µM | EKVX > 100 µM | SF-268 > 100 µM | NCI-H23 61.7 µM | HOP-62 > 100 µM | SNB-75 55.7 µM | HT-29 > 100 µM | CCRF-CEM 18.6 µM | LXFL 529 20 µM | A549 > 100 µM | MOLT-4 23 µM | CAKI-1 > 100 µM | SNB-19 > 100 µM | ACHN > 100 µM | DLD-1 > 100 µM | NCI-H460 > 100 µM | KM-20L2 > 100 µM | NCI-H226 > 100 µM | OVCAR-5 > 100 µM | SW-620 > 100 µM | M14 > 100 µM | KM12 66.4 µM | K562 37.9 µM | TK-10 > 100 µM | HOP-18 > 100 µM | SK-MEL-28 > 100 µM | OVCAR-8 79.3 µM | SR 18.3 µM | IGROV-1 66.4 µM | HL-60 27.6 µM | SK-OV-3 > 100 µM | RPMI-8226 18.7 µM | SN12C 35.9 µM | OVCAR-4 39.1 µM | DMS-114 33.9 µM | UACC-257 > 100 µM | OVCAR-3 37.2 µM | XF498 24.6 µM | SF-295 > 100 µM | SK-MEL-2 > 100 µM
> 100 µM: HCT-15
